Measurements from patent US6075054A, “Ortho-substituted benzoylguanidines, process for their preparation, their use as a medicament or diagnostic, and medicament comprising them” (Hoechst Aktiengesellschaft, priority 1997, dated 2000).
Where a name gives a salt, the structure may show the parent alone.

Target: T1, Na^+ /H^+ exchanger of rabbit erythrocytes (Oryctolagus cuniculus, UniProt P23791)
T1 construct: endogenous in cells; host or cells: erythrocytes in whole blood of White New Zealand rabbits (Ivanovas) fed 2% cholesterol
Test: Inhibition of the Na^+ /H^+ exchanger of rabbit erythrocytes (amiloride-sensitive sodium influx, flame photometry)
Format: cell-based, rabbit (White New Zealand)
Conditions: erythrocytes of rabbits on 2% cholesterol diet; hyperosmolar salt-sucrose medium, pH 7.4, 37° C.
Source text: Inhibition of the Na^+ /H^+ exchanger of rabbit erythrocytes White New Zealand rabbits (Ivanovas) received a standard diet with 2% cholesterol for six weeks in order to activate the Na^+ /H^+ exchange and thus to be able to determine the Na^+ -influx into the erythrocytes via Na^+ /H^+ exchange by flame photometry. The blood was taken from the auricular arteries and rendered incoagulable by 25 IU of potassium-heparin. A part of each sample was used for the duplicate determination of the hematocrits by centrifugation. Aliquots of 100 μl in each case were used for the measurement of the Na^+ starting content of the erythrocytes.
In order to determine the amiloride-sensitive sodium influx, 100 μl of each blood sample were incubated in 5 ml in each case of a hyperosmolar salt-sucrose medium (mmol/l: 140 NaCl, 3 KCl, 150 sucrose, 0.1 ouabain, 20 tris-hydroxymethylaminomethane) at pH 7.4 and 37° C. The erythrocytes were then washed three times with ice-cold MgCl2 -ouabain solution (mmol/l: 112 MgCl2, 0.1 ouabain) and hemolyzed in 2.0 ml of distilled water. The intracellular sodium content was determined by flame photometry.
The Na^+ net influx was calculated from the difference between sodium starting values and the sodium content of the erythrocytes after incubation. […]

T1 sequence (P23791 whole entry): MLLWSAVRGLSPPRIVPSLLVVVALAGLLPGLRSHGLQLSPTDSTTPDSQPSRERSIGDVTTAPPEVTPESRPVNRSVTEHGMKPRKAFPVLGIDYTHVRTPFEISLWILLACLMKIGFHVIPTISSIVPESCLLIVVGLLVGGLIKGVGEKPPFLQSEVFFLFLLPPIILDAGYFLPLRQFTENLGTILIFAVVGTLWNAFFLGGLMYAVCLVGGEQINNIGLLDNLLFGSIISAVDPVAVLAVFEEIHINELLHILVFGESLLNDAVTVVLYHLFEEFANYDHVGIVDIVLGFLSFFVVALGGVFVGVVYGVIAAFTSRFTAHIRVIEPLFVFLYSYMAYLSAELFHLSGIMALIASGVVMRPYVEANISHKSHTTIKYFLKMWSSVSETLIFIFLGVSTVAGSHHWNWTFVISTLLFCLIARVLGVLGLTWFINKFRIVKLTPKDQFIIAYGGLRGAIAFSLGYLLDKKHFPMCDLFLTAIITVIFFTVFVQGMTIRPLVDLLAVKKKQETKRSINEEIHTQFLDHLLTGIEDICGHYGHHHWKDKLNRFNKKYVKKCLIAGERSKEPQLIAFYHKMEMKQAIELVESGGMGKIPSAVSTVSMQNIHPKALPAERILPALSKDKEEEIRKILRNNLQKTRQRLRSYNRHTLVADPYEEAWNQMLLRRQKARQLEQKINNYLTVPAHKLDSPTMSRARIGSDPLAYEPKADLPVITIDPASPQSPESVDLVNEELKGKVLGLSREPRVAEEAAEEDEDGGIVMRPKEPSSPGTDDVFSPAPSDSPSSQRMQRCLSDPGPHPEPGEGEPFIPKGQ

IC50: 1.2 nM
SMILES: Cc1cc(C(C)CO)c(C(F)(F)F)cc1C(=O)N=C(N)N (racemic) [Example 1, hydrochloride]
